Here are results for one compound from patent US20090325920A1, “METHODS FOR THE TREATMENT OF A TRAUMATIC CENTRAL NERVOUS SYSTEM INJURY” (priority 2005, published 2009).

The nature of data set [1]: Stability of progesterone solutions (isocratic HPLC-UV). The class given is physicochemical. The text has this:
For all stability testing, the method of […], et al. was used with minor modifications ([…], et al. (1999) Journal of Pharmaceutical & Biomedical Analysis, 19(5):803-8). The method was originally validated to assess the stability of medroxyprogesterone acetate and estradiol valerate tablets. It is an isocratic HPLC-UV method utilizing external standardization. A 5 micron, 4.6×250mm BDS-Hypersil C-18 column (Keystone Scientific) was used and the analyses were completed on an Agilent 100 model HPLC system with photodiode array detector. The mobile phase consisted of 40% 0.07M ammonium acetate buffer, pH 7.2 and 60% acetonitrile. Detection was at […]. […] Reproducibility as assessed by 10 injections of the same preparation on multiple different days was always less that 10%. […] A five point standard curve was run with each analysis.

A short description of data set [2]: clinical. To be noted: human, in vivo. An excerpt:
This study was approved by the Institutional Review Board of Emory University, the Drug Safety Monitoring Board (NINDS) and the FDA (IND #58,986). After obtaining informed consent, thirty-six patients meeting the inclusion criteria outlined as follows were studied. […] Inclusion criteria required that each patient be ≧18 years old, have a closed head injury arising from blunt trauma, have a moderate to severe brain injury (Index Glasgow Coma Score (GCS) 4-12) and arrive in the Emergency Department and obtain informed consent (from next-of-kin) in less than 11 hours post injury.
Aliquots of each solution were assayed for final concentration and sterility. […] Each kit contained six vials. […] The placebo kits were also formulated with 95% ethanol. Because of the alcohol concentration, doses of study drug were mixed with Intralipid® immediately prior to infusion. Each infusion dose was administered over 12 hours and repeated every 12 hours for a total of 72 hours. […] The dosing worksheet was also used to calculate the volume of study medication to be diluted in Intralipid® for each of the remaining infusion reservoirs at a standard rate of 10 cc/hr.
Nine (5 ml) samples were obtained at the following times during the infusion: pre-infusion (0), 4, 6, 12, 24, 36, 48, 60, and 72 hours. An additional five samples were obtained following cessation of infusion at: 0.5, 1, 2, 4 and 8 hours. Samples were allowed to clot, and then centrifuged After that, the serum was removed and stored at −70° C. until analyzed.
The primary pharmacokinetic parameter, CL, was estimated as the ratio of the dose to area under the serum concentration-time curve (AUC). AUC's were calculated using the linear trapezoidal rule (Veng-Pedersen (1989) Clin Pharmacokinet, 17(6):424-40). The elimination phase rate constant, ke, was calculated from the serum concentration-time data following the termination of the infusion using iterative non-linear regression (WinNonlin®, Pharsight Corporation, Mountain View, Calif.). Volume of Distribution was estimated as the ratio of CL and ke. Css was estimated as the ratio of Dose and CL. Actual Css was defined as the concentration achieved when the slope of the serum concentration-time curve for three or more consecutive samples was not different from zero.
Predicted Css concentrations were calculated as the ratio of the infusion rate/clearance. Differences between predicted and measured Css were made using a ‘t’ test for repeated measures. A Bland-Altman analysis was conducted to assess the magnitude of any bias associated with this approach (Bland and Altman (1986) Lancet, 1(8476):307-10). Pharmacokinetic parameter comparisons between male and female were accomplished using a ‘t’ test for independent means. A p value of less than 0.05 was considered the minimum level for rejection of the null hypothesis.

SMILES strings stand for the structures.

The term clearance denotes a measure of how efficiently the substance is removed, as volume per time. A high value points to a high capacity for elimination. Broadly, the half-life is the time needed for the level to fall by half in the phase considered. The low end stands for fast loss, the high end for slow loss. One may read the Vd as the apparent volume that relates the amount in the body to the concentration in plasma or blood. A low value points to confinement near the circulation. Take `CC(=O)[C@H]1CC[C@H]2[C@@H]3CCC4=CC(=O)CC[C@]4(C)[C@H]3CC[C@]12C` [progesterone, pregn-4-ene-3,20-dione]: the stability of solution in data set [1] (Intralipid solutions containing progesterone in 95% ethyl alcohol) is not below 24 h; in data set [1] (solution of progesterone in 95% ethyl alcohol, room temperature) it was “up to 2 years”. The compound also had a Css actually measured in data set [2] (both) of 337 ± 135 ng/mL. Moreover, the “Css predicted by Ro/CL” value in data set [2] (both) was 332 ± 121 ng/mL. The clearance was 28.8 mL/min/kg in data set [2] (both, CL); 31.3 mL/min/kg in data set [2] (female, CL); 27.7 mL/min/kg in data set [2] (male, CL); 22.2 mL/min/kg in data set [2] (male, iv). Further, the half-life is 1.78 ± 1 h in data set [2] (both, terminal half-life); 2.03 ± 1.08 h in data set [2] (female, t1/2); 1.6 ± 0.95 h in data set [2] (male, t1/2). For the same compound, the “Css Measured” value in data set [2] (female) is given as 316 ng/mL. The Vd was determined as 1.33 L/kg in data set [2] (female, iv) and 1.62 L/kg in data set [2] (male, iv).
